Experimental data reported in ChEMBL document CHEMBL3046827, “Synthesis and antimicrobial activities of N-chloroacetyl-2,6-diarylpiperidin-4-ones” (2007).
Values after ≈ are worked out from the molar mass of the structure shown. Active and inactive are the calls of the source. No cut-off for these calls is given here.

Experiments:
Bacillus subtilis [1] = experiment: Antibacterial activity against Bacillus subtilis assessed as growth inhibition at 200 ug/mL after 24 hr by two-fold serial dilution method; format: functional, organism-based
Candida albicans = experiment: Antifungal activity against Candida albicans after 72 to 96 hr by two-fold serial dilution method; format: functional
Escherichia coli [2] = experiment: Antibacterial activity against Escherichia coli assessed as growth inhibition at 200 ug/mL after 24 hr by two-fold serial dilution method; format: functional, organism-based
Aspergillus flavus [3] = experiment: Antifungal activity against Aspergillus flavus after 72 to 96 hr by two-fold serial dilution method; format: functional
Rhizopus [4] = experiment: Antifungal activity against Rhizopus sp. assessed as growth inhibition at 200 ug/mL after 72 to 96 hr by two-fold serial dilution method; format: functional, organism-based
Pseudomonas aeruginosa = experiment: Antibacterial activity against Pseudomonas aeruginosa after 24 hr by twofold serial dilution method; format: functional
Salmonella typhi = experiment: Antibacterial activity against Salmonella enterica subsp. enterica serovar Typhi after 24 hr by twofold serial dilution method; format: functional
Staphylococcus aureus = experiment: Antibacterial activity against Staphylococcus aureus after 24 hr by two-fold serial dilution method; format: functional
Cryptococcus neoformans [5] = experiment: Antifungal activity against Cryptococcus neoformans assessed as growth inhibition at 200 ug/mL after 72 to 96 hr by two-fold serial dilution method; format: functional, organism-based
Aspergillus niger [6] = experiment: Antifungal activity against Aspergillus niger assessed as growth inhibition at 200 ug/mL after 72 to 96 hr by two-fold serial dilution method; format: functional, organism-based
Escherichia coli [7] = experiment: Antibacterial activity against Escherichia coli after 24 hr by two-fold serial dilution method; format: functional
Aspergillus niger [8] = experiment: Antifungal activity against Aspergillus niger after 72 to 96 hr by two-fold serial dilution method; format: functional
Rhizopus [9] = experiment: Antifungal activity against Rhizopus sp. after 72 to 96 hr by two-fold serial dilution method; format: functional
Cryptococcus neoformans [10] = experiment: Antifungal activity against Cryptococcus neoformans after 72 to 96 hr by two-fold serial dilution method; format: functional
Bacillus subtilis [11] = experiment: Antibacterial activity against Bacillus subtilis after 24 hr by two-fold serial dilution method; format: functional
Aspergillus flavus [12] = experiment: Antifungal activity against Aspergillus flavus assessed as growth inhibition at 200 ug/mL after 72 to 96 hr by two-fold serial dilution method; format: functional, organism-based

SMILES | growth inhibition (GI) (Bacillus subtilis [1]) | MIC (Candida albicans) | growth inhibition (GI) (Escherichia coli [2]) | MIC (Aspergillus flavus [3]) | growth inhibition (GI) (Rhizopus [4]) | MIC (Pseudomonas aeruginosa) | MIC (Salmonella typhi) | MIC (Staphylococcus aureus) | growth inhibition (GI) (Cryptococcus neoformans [5]) | growth inhibition (GI) (Aspergillus niger [6]) | MIC (Escherichia coli [7]) | MIC (Aspergillus niger [8]) | MIC (Rhizopus [9]) | MIC (Cryptococcus neoformans [10]) | MIC (Bacillus subtilis [11]) | growth inhibition (GI) (Aspergillus flavus [12])
O=C1CC(c2ccccc2)N(C(=O)CCl)C(c2ccccc2)C1 (configuration not stated) | inactive | 200 µg/mL (≈ 610 µM) | inactive | 100 µg/mL (≈ 305 µM) | inactive | 100 µg/mL (≈ 305 µM) | 50 µg/mL (≈ 153 µM) | 200 µg/mL (≈ 610 µM) | inactive | inactive | – | – | – | – | – | –
O=C(O)c1cn(C2CC2)c2cc(N3CCNCC3)c(F)cc2c1=O [CIPROFLOXACIN] | – | – | – | – | – | – | 50 µg/mL (≈ 151 µM) | – | – | – | 25 µg/mL (≈ 75.4 µM) | – | – | – | – | –
CC1C(=O)CC(c2ccccc2)N(C(=O)CCl)C1c1ccccc1 (configuration not stated) | – | 200 µg/mL (≈ 585 µM) | – | 200 µg/mL (≈ 585 µM) | – | 200 µg/mL (≈ 585 µM) | 50 µg/mL (≈ 146 µM) | 100 µg/mL (≈ 293 µM) | – | – | 100 µg/mL (≈ 293 µM) | 200 µg/mL (≈ 585 µM) | 100 µg/mL (≈ 293 µM) | 100 µg/mL (≈ 293 µM) | 100 µg/mL (≈ 293 µM) | –
CC1C(=O)CC(c2ccc(Cl)cc2)N(C(=O)CCl)C1c1ccc(Cl)cc1 (configuration not stated) | – | 100 µg/mL (≈ 243 µM) | – | 25 µg/mL (≈ 60.9 µM) | – | 12.5 µg/mL (≈ 30.4 µM) | 100 µg/mL (≈ 243 µM) | 50 µg/mL (≈ 122 µM) | – | – | 25 µg/mL (≈ 60.9 µM) | 50 µg/mL (≈ 122 µM) | 25 µg/mL (≈ 60.9 µM) | 100 µg/mL (≈ 243 µM) | 100 µg/mL (≈ 243 µM) | –
Cc1ccc(C2C(C)C(=O)C(C)C(c3ccc(C)cc3)N2C(=O)CCl)cc1 (configuration not stated) | – | 50 µg/mL (≈ 130 µM) | – | 50 µg/mL (≈ 130 µM) | – | 200 µg/mL (≈ 521 µM) | 100 µg/mL (≈ 260 µM) | 200 µg/mL (≈ 521 µM) | – | – | 50 µg/mL (≈ 130 µM) | 100 µg/mL (≈ 260 µM) | 25 µg/mL (≈ 65.1 µM) | 50 µg/mL (≈ 130 µM) | 100 µg/mL (≈ 260 µM) | –
CC(C)C1C(=O)CC(c2ccccc2)N(C(=O)CCl)C1c1ccccc1 (configuration not stated) | – | 50 µg/mL (≈ 135 µM) | – | – | – | 200 µg/mL (≈ 541 µM) | 100 µg/mL (≈ 270 µM) | 100 µg/mL (≈ 270 µM) | – | – | 200 µg/mL (≈ 541 µM) | 100 µg/mL (≈ 270 µM) | 100 µg/mL (≈ 270 µM) | 200 µg/mL (≈ 541 µM) | 200 µg/mL (≈ 541 µM) | inactive
CCC1C(=O)CC(c2ccc(Cl)cc2)N(C(=O)CCl)C1c1ccc(Cl)cc1 (configuration not stated) | – | 100 µg/mL (≈ 235 µM) | – | 25 µg/mL (≈ 58.9 µM) | – | 50 µg/mL (≈ 118 µM) | 12.5 µg/mL (≈ 29.4 µM) | 25 µg/mL (≈ 58.9 µM) | – | – | 50 µg/mL (≈ 118 µM) | 12.5 µg/mL (≈ 29.4 µM) | 50 µg/mL (≈ 118 µM) | 50 µg/mL (≈ 118 µM) | 25 µg/mL (≈ 58.9 µM) | –
CC1C(=O)C(C)C(c2ccc(Cl)cc2)N(C(=O)CCl)C1c1ccc(Cl)cc1 (configuration not stated) | – | 200 µg/mL (≈ 471 µM) | – | 100 µg/mL (≈ 235 µM) | – | 100 µg/mL (≈ 235 µM) | 25 µg/mL (≈ 58.9 µM) | 12.5 µg/mL (≈ 29.4 µM) | – | – | 50 µg/mL (≈ 118 µM) | 50 µg/mL (≈ 118 µM) | 100 µg/mL (≈ 235 µM) | 50 µg/mL (≈ 118 µM) | 100 µg/mL (≈ 235 µM) | –
COc1ccc(C2CC(=O)C(C)C(c3ccc(OC)cc3)N2C(=O)CCl)cc1 (configuration not stated) | – | 100 µg/mL (≈ 249 µM) | – | 50 µg/mL (≈ 124 µM) | – | 50 µg/mL (≈ 124 µM) | 100 µg/mL (≈ 249 µM) | 25 µg/mL (≈ 62.2 µM) | – | – | 100 µg/mL (≈ 249 µM) | 50 µg/mL (≈ 124 µM) | 25 µg/mL (≈ 62.2 µM) | 100 µg/mL (≈ 249 µM) | 200 µg/mL (≈ 498 µM) | –
COc1ccc(C2C(C)C(=O)C(C)C(c3ccc(OC)cc3)N2C(=O)CCl)cc1 (configuration not stated) | – | 100 µg/mL (≈ 240 µM) | – | 50 µg/mL (≈ 120 µM) | – | 100 µg/mL (≈ 240 µM) | 25 µg/mL (≈ 60.1 µM) | 50 µg/mL (≈ 120 µM) | – | – | 100 µg/mL (≈ 240 µM) | 25 µg/mL (≈ 60.1 µM) | 100 µg/mL (≈ 240 µM) | 100 µg/mL (≈ 240 µM) | 50 µg/mL (≈ 120 µM) | –
CN[C@@H]1[C@H](O[C@H]2[C@H](O[C@H]3[C@H](O)[C@@H](O)[C@H](N=C(N)N)[C@@H](O)[C@@H]3N=C(N)N)O[C@@H](C)[C@]2(O)C=O)O[C@@H](CO)[C@H](O)[C@H]1O [STREPTOMYCIN] | – | – | – | – | – | 50 µg/mL (≈ 86 µM) | 25 µg/mL (≈ 43 µM) | 25 µg/mL (≈ 43 µM) | – | – | 50 µg/mL (≈ 86 µM) | – | – | – | 12.5 µg/mL (≈ 21.5 µM) | –
Cc1ccc(C2CC(=O)C(C)C(c3ccc(C)cc3)N2C(=O)CCl)cc1 (configuration not stated) | – | 50 µg/mL (≈ 135 µM) | – | 12.5 µg/mL (≈ 33.8 µM) | – | 100 µg/mL (≈ 270 µM) | 50 µg/mL (≈ 135 µM) | 100 µg/mL (≈ 270 µM) | – | – | 25 µg/mL (≈ 67.6 µM) | 12.5 µg/mL (≈ 33.8 µM) | 50 µg/mL (≈ 135 µM) | 25 µg/mL (≈ 67.6 µM) | 12.5 µg/mL (≈ 33.8 µM) | –
C[C@@H]1[C@H](O)[C@@H](C)/C=C/C=C/C=C/C=C/C=C/C=C/C=C/[C@H](O[C@@H]2O[C@H](C)[C@@H](O)[C@H](N)[C@@H]2O)C[C@@H]2O[C@](O)(C[C@@H](O)C[C@@H](O)[C@H](O)CC[C@@H](O)C[C@@H](O)CC(=O)O[C@H]1C)C[C@H](O)[C@H]2C(=O)O [AMPHOTERICIN B] | – | 25 µg/mL (≈ 27.1 µM) | – | 50 µg/mL (≈ 54.1 µM) | – | – | – | – | – | – | – | 50 µg/mL (≈ 54.1 µM) | 25 µg/mL (≈ 27.1 µM) | 25 µg/mL (≈ 27.1 µM) | – | –
